Reference: the NIST ThermoML archive (doi:10.1021/je025660t)

Conditions: Liquid

COCC(C)O (centres undefined) [1-methoxy-2-propanol]
Conditions	vapor or sublimation pressure [kPa]
331.47 K	9.246
333.15 K	10.01
339.12 K	13.11
343.15 K	15.79
347.71 K	19.25
351.56 K	22.64
353.15 K	24.17
355.59 K	26.69
358.15 K	29.57
360.78 K	32.79
363.01 K	35.74
368.23 K	43.48
373.31 K	52.31

CCCCCN [1-pentanamine]
Conditions	vapor or sublimation pressure [kPa]
322.61 K	13.08
328.37 K	16.87
333.14 K	20.65
338.07 K	25.25
340.66 K	27.99
343.16 K	30.85
345.56 K	33.81
348.11 K	37.22
353.15 K	44.75
358.15 K	53.38
363.14 K	63.27
370.62 K	80.72
377.93 K	101.33

CC#N [acetonitrile]
Conditions	vapor or sublimation pressure [kPa]
302.25 K	14.15
307.09 K	17.52
311.49 K	21.13
313.15 K	22.65
316.27 K	25.72
318.18 K	27.78
320.65 K	30.64
323.16 K	33.8
326.16 K	37.9
328.5 K	41.38
331.15 K	45.62
333.15 K	49.06
335.84 K	54.01
338.15 K	58.58
343.18 K	69.62
348.25 K	82.37
353.1 K	96.34

CCC#N [propanenitrile]
Conditions	vapor or sublimation pressure [kPa]
309.38 K	10.59
311.56 K	11.55
313.15 K	12.55
315.89 K	14.14
318.35 K	15.71
320.51 K	17.22
323.15 K	19.22
325.74 K	21.35
328.27 K	23.64
330.82 K	26.11
333.15 K	28.57
335.82 K	31.64
338.22 K	34.61
343.08 K	41.33
348.09 K	49.32
353.15 K	58.6
